The text below walks through data of patent publication US20230022724A1, “NOVEL IMIDAZOPYRAZINE DERIVATIVES” (Hoffmann-La Roche Inc., priority 2018, published 2023).

Counter-ions that a name gives are not always drawn.

Usually IC90 stands for the concentration at which the effect reaches the 90% level.

One assay concerns Acinetobacter baumannii ATCC17961. Put plainly: Antimicrobial susceptibility testing: 90% growth inhibitory concentration (IC90) determination. The format is cell-based. The following applies: Acinetobacter baumannii ATCC17961, Iso-Sensitest broth, OD 600 nm over 16 h. The method in brief:
(§1)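 Compounds in twofold series (e.g. 50 to 0.097 μM final) in Iso-Sensitest broth, inoculated at ~5×10^5 CFU/ml, incubated at 35±2° C. OD600 was read every 20 minutes for 16 h. IC90 was derived from growth inhibition during logarithmic phase.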
Compound `CNCC1(O)CCN(C(=O)c2ccc(Nc3nccn4c(-c5ccc(OC)c(F)c5F)cnc34)cc2Cl)CC1` [Example 111, (2-chloro-4-((3-(2,3-difluoro-4-methoxyphenyl)imidazo[1,2-a]pyrazin-8-yl)amino)phenyl)(4-hydroxy-4-((methylamino)methyl)piperidin-1-yl)methanone] showed an IC90 of 0.068 µM.

With `COc1ccc(-c2cnc3c(Nc4ccc(C(=O)N5CCN(C(=O)[C@@H]6C[C@@H](O)CN6)CC5)c(Cl)c4)nccn23)c(F)c1F` [Example 35, [2-chloro-4-[[3-(2,3-difluoro-4-methoxy-phenyl)imidazo[1,2-a]pyrazin-8-yl]amino]phenyl]-[4-[(2S,4R)-4-hydroxypyrrolidine-2-carbonyl]piperazin-1-yl]methanone formate], the IC90 was 0.0412 µM.

On to `COc1ccc(-c2cnc3c(Nc4cc(F)c(C(=O)N5CCN(C(=O)[C@@H]6C[C@@H](O)CN6)CC5)c(Br)c4)nccn23)c(F)c1F` [Example 109, (4-(2-bromo-4-((3-(2,3-difluoro-4-methoxyphenyl)imidazo[1,2-a]pyrazin-8-yl)amino)-6-fluorobenzoyl)piperazin-1-yl)((2S,4R)-4-hydroxypyrrolidin-2-yl)methanone dihydrochloride], for which the IC90 stood at 0.069 µM.

For the compound `O=C(c1ccc(Nc2nccn3c(-c4ccc(OC(F)F)c(F)c4F)cnc23)cc1Cl)N1CCN(C(=O)[C@@H]2C[C@@H](O)CN2)CC1` [Example 113, [2-chloro-4-[[3-[4-(difluoromethoxy)-2,3-difluoro-phenyl]imidazo[1,2-a]pyrazin-8-yl]amino]phenyl]-[4-[(2S,4R)-4-hydroxypyrrolidine-2-carbonyl]piperazin-1-yl]methanone formate], the IC90 is 0.022 µM.

`COc1ccc(-c2cnc3c(Nc4cc(F)c(C(=O)N5CCN(C(=O)[C@@H]6C[C@@H](O)CN6)CC5)c(Cl)c4)nccn23)c(F)c1F` [Example 50, (4-(2-chloro-4-((3-(2,3-difluoro-4-methoxyphenyl)imidazo[1,2-a]pyrazin-8-yl)amino)-6-fluorobenzoyl)piperazin-1-yl)((2S,4R)-4-hydroxypyrrolidin-2-yl)methanone dihydrochloride] yielded an IC90 of 0.0821 µM.

In turn, `N#CCOc1ccc(-c2cnc3c(Nc4ccc(C(=O)N5CCN(C(=O)CN6CCC(C(=O)O)C6)CC5)c(Cl)c4)nccn23)c(F)c1F` (centres unmarked) [Example 108, 1-(2-(4-(2-chloro-4-((3-(4-(cyanomethoxy)-2,3-difluorophenyl)imidazo[1,2-a]pyrazin-8-yl)amino)benzoyl)piperazin-1-yl)-2-oxoethyl)pyrrolidine-3-carboxylic acid trifluoroacetate] showed an IC90 of 0.35 µM.

`O=C(c1ccc(Nc2nccn3c(-c4ccc(OC(F)F)c(F)c4F)cnc23)cc1F)N1CCN(C(=O)C2CCN(CC3CCNC3)CC2)CC1` (centres unmarked) [Example 114, (4-(4-((3-(4-(difluoromethoxy)-2,3-difluorophenyl)imidazo[1,2-a]pyrazin-8-yl)amino)-2-fluorobenzoyl)piperazin-1-yl)(1-(pyrrolidin-3-ylmethyl)piperidin-4-yl)methanone bis(2,2,2-trifluoroacetate)] showed an IC90 of 0.056 µM.

Compound `O=C(c1ccc(Nc2nccn3c(-c4ccc(OCF)c(F)c4F)cnc23)cc1Cl)N1CCN(C(=O)[C@@H]2C[C@@H](O)CN2)CC1` [Example 112, [2-chloro-4-[[3-[2,3-difluoro-4-(fluoromethoxy)phenyl]imidazo [1,2-a]pyrazin-8-yl]amino]phenyl]-[4-[(2S,4R)-4-hydroxypyrrolidine-2-carbonyl]piperazin-1-yl]methanone trifluoroacetate] came in with a 90% effect concentration (IC90) of 0.022 µM.

`COc1ccc(-c2cnc3c(Nc4cc(F)c(C(=O)N5CCN(C(=O)[C@@H]6C[C@@H](O)CN6)CC5)c(F)c4)nccn23)c(F)c1F` [Example 49, (4-(4-((3-(2,3-difluoro-4-methoxyphenyl)imidazo[1,2-a]pyrazin-8-yl)amio)-2,6-difluorobenzoyl)piperazin-1-yl)((2S,4R)-4-hydroxypyrrolidin-2-yl)methanone dihydrochloride] gave an IC90 of 0.0722 µM.

`N#CCOc1ccc(-c2cnc3c(Nc4ccc(C(=O)N5CCN(C(=O)[C@@H]6C[C@@H](O)CN6)CC5)c(Cl)c4)nccn23)c(Cl)c1F` [Example 33, 2-[3-chloro-4-[8-[3-chloro-4-[4-[(2S,4R)-4-hydroxypyrrolidine-2-carbonyl]piperazine-1-carbonyl]anilino]imidazo[1,2-a]pyrazin-3-yl]-2-fluoro-phenoxy]acetonitrile Formate] came in with an IC90 of 0.0339 µM.

As for `CNCC1(O)CCN(C(=O)c2ccc(Nc3nccn4c(-c5ccc(OC)c(F)c5)cnc34)cc2Cl)CC1` [Example 110, (2-chloro-4-((3-(3-fluoro-4-methoxyphenyl)imidazo[1,2-a]pyrazin-8-yl)amino)phenyl)(4-hydroxy-4-((methylamino)methyl)piperidin-1-yl)methanone], the IC90 turned out to be 0.08 µM.

For another assay, the system named is Acinetobacter baumannii ATCC17978. Described as above. The format is cell-based. The following applies: 90% growth inhibitory concentration, Acinetobacter baumannii ATCC17978, Iso-Sensitest broth, OD 600 nm over 16 h; read-out: ATCC17978 IC90. The method in brief: as §1
As for `CN(C)CCN1CCN(C(=O)c2ccc(Nc3nccn4c(-c5ccc(OCC#N)c(F)c5F)cnc34)cc2Cl)CC1` [Example 84, 2-[4-[8-[3-chloro-4-[4-[2-(dimethylamino)ethyl]piperazine-1-carbonyl]anilino]imidazo[1,2-a]pyrazin-3-yl]-2,3-difluorophenoxy]acetonitrile; 2,2,2-trifluoroacetic acid], the 90% effect concentration (IC90) came out at 0.11 µM.

Staying with this assay, now noted: Acinetobacter baumannii, ATCC17978, 16 h, 90% growth inhibitory concentration, Acinetobacter baumannii ATCC17978, Iso-Sensitest broth, OD 600 nm over 16 h; read-out: ATCC17978 IC90.
`COc1ccc(-c2cnc3c(Nc4ccc(C(=O)N5CCC(CN)CC5)c(Cl)c4)nccn23)cc1F` [Example 4, (4-(Aminomethyl)piperidin-1-yl)(2-chloro-4-((3-(3-fluoro-4-methoxyphenyl)imidazo[1,2-a]pyrazin-8-yl)amino)phenyl)methanone hydrochloride]: the IC90 amounted to 0.12 µM.

`COc1ccc(-c2cnc3c(Nc4ccc(C(=O)N5CCNC(C(=O)O)C5)c(Cl)c4)nccn23)c(F)c1F` (centres unmarked) [Example 1, 4-(2-chloro-4-((3-(2,3-difluoro-4-methoxyphenyl)imidazo[1,2-a]pyrazin-8-yl)amino)benzoyl)piperazine-2-carboxylic Acid]: the IC90 came to 1.9 µM.

Staying with this assay, now noted: Acinetobacter baumannii, ATCC17978, 16 h, read-out: ATCC17978 IC90.
In the case of `CN(C)CC1CCN(C(=O)c2ccc(Nc3nccn4c(-c5ccc(OCC#N)c(F)c5Cl)cnc34)cc2Cl)CC1` [Example 6, 2-[3-chloro-4-[8-[3-chloro-4-[4-[(dimethylamino)methyl]piperidine-1-carbonyl]anilino]imidazo[1,2-a]pyrazin-3-yl]-2-fluoro-phenoxy]acetonitrile; formic acid], the IC90 worked out at 0.11 µM.

On to `CNCCNC(=O)C1CCN(C(=O)c2ccc(Nc3nccn4c(-c5ccc(OC)c(F)c5)cnc34)cc2Cl)CC1` [Example 16, 1-(2-chloro-4-((3-(3-fluoro-4-methoxyphenyl)imidazo[1,2-a]pyrazin-8-yl)amino)benzoyl)-N-(2-(methylamino)ethyl)piperidine-4-carboxamide hydrochloride], for which the IC90 was 0.1 µM.

As to `COc1ccc(-c2cnc3c(Nc4ccc(C(=O)N5CCC(C(=O)N6CCOC(CN)C6)CC5)c(Cl)c4)nccn23)cc1F` (centres unmarked) [Example 52, [4-[2-(aminomethyl)morpholine-4-carbonyl]piperidin-1-yl]-[2-chloro-4-[[3-(3-fluoro-4-methoxyphenyl)imidazo[1,2-a]pyrazin-8-yl]amino]phenyl]methanone; hydrochloride], the IC90 is 0.088 µM.
